What was measured:
MCF-7 cells = test: Growth of MCF-7 cells (cell number); type: cell-based, human
Description: FIG. 3 represents the effect of FTS on the growth of MCF-7, LTED, and MCF-10A cells. Sixty thousand cells were plated into each well of 6-well plates. Two days later, the cells were treated in triplicate for five days with FTS at indicated concentrations. The results (mean±S.E.) are expressed as percentage of the vehicle control.
FIG. 4 represents the effect of FTS on E2 stimulated growth of MCF-7 and LTED cells. Thirty thousand cells were plated into each well of 6-well plates. Two days later, the cells were re-fed with IMEM containing 5% DCC-FBS. After another two days, cells were treated in triplicate with estradiol (10^−10 M) plus various concentrations of FTS for five days. In LTED cells, fulvestrant (10^−9 M) was included in all wells to block the effect of residual estrogen in the culture. The results (mean±S.E.) are expressed as percentage of cell number from the wells containing E2.
The effect of FTS on growth of breast cancer cells was examined in two different cell lines: MCF-7 wild type cells which represent a model for untreated breast cancer and LTED cells as a model of cells adapting to endocrine treatment. Cells were grown in their culture media and treated with FTS for five days. […] The effect of FTS on E2-stimulated growth of MCF-7 and LTED cells was the examined. Five-day treatment of MCF-7 cells with E2 (10^−10 M) increased cell number by 8-fold compared with the vehicle control. Addition of FTS reduced cell number in a dose-dependent manner with about 50% inhibition at the concentration of 50 μM […]. […] The extent of inhibition of E2-stimulated cell growth by FTS was similar in these two cell lines.

LTED cells = test: [3H] thymidine incorporation into DNA, LTED cells; type: cell-based, human; details: FTS 75 μM, 18 hours
Description: FIGS. 5A & 5B represent the effect of FTS on DNA synthesis in MCF-7 (FIG. 5A) and LTED (FIG. 5B) cells. One hundred thousand cells were plated into each well of 24-well plates. Two days later, the cells were re-fed with IMEM containing 5% DCC-FBS. After another two days, cells were treated in quadruplicate with the compounds indicated for 18 hours. [^3H] thymidine (1 μCi/well) was added during the last 2 h of incubation. [^3H] thymidine incorporated into DNA was normalized by protein content.
The inhibitory effect of FTS on cell growth may be the result of inhibition of cellular proliferation, induction of apoptosis, or both. To determine the mechanism by which FTS inhibits cell growth, FTS's effect on DNA synthesis and apoptosis was investigated. […] Estradiol (10^−10 M) increased [^3H] thymidine incorporation by 2.6 fold compared to the control level in MCF-7 cells.

mTOR-raptor complex = target: T1, mTOR-raptor complex (Homo sapiens, UniProt P42345+Q8N122); test: Coimmunoprecipitation of raptor with mTOR from 293T cells incubated with compound; type: cell-based; details: nontransfected 293T cells
T1 construct: expressed in transfected cells; host or cells: 293T
Description: FIG. 11A & 11B represent data showing FTS inhibits PHAS-I phosphorylation and promotes dissociation of the mTOR-raptor complex in 293T cells. 293T cells were transfected with pcDNA3AU1-mTOR, pcDNA33HARaptor, pcDNA33HA-mLST8, and pCMV-Tag3APHAS-I (FIG. 11A). After 18 h the cells were incubated for 1 h with increasing concentrations of FTS before extracts were prepared. A sample of each extract was subjected to SDS-PAGE and immunoblotted to detect PHAS-I or PThr^36/45. AU1-mTOR was also immunoprecipitated from each extract, and immune complexes were subjected to SDSPAGE and immunoblotted with mTAb2, to detect mTOR, and with anti-HA antibodies, to detect HA-mLST8 and HA-raptor. Nontransfected 293T cells were incubated with increasing concentrations of FTS for 1 h before extracts were prepared. mTOR was immunoprecipitated with mTAb1, and samples were subjected to SDS-PAGE.
FIGS. 12A & 12B represent data showing the effects of incubating cells with increasing concentrations of FTS and GTS on mTOR activity and mTOR association with raptor and mLST8. AU1-mTOR, HA-raptor, and HAmLST8 were overexpressed in 293T cells. The cells were then incubated for 1 h with increasing concentrations of FTS (●, ▴, ▪) or GTS (∘, Δ, □) before extracts were prepared. Immunoprecipitations were then conducted with anti-AU1 antibodies. mTOR kinase activity (●, ∘) was determined by measuring ^32P incorporation into [His^6]PHAS-I in immune complex kinases assays performed with [γ-^32P]ATP. The relative amounts of HA-raptor (▴, Δ) and HA-mLST8 (▪, □) that coimmunoprecipitated with AU1-mTOR were determined after immunoblotting with anti-HA antibodies. The results (mean values±S.E. from 3 experiments) are expressed as percentages of the mTOR activity (FIG. 12A) or coimmunoprecipitating proteins (FIG. 12B) from samples incubated without FTS or GTS, and have been corrected for the amounts of AU1-mTOR immunoprecipitated.
To investigate further the inhibitory effects of FTS on mTOR signaling, the effect of the drug on the association of mTOR, raptor, and mLST8 was determined. AU1-mTOR and HA-tagged forms of raptor and mLST8 were overexpressed in 293T cells, which were then incubated with increasing concentrations of FTS before AU1-mTOR was immunoprecipitated with anti-AU1 antibodies. Immunoblots were prepared with anti-HA antibodies to assess the relative amounts of HA-raptor and HA-mLST8 that coimmunoprecipitated with AU 1-mTOR (FIG. 11A).
Results obtained with overexpressed proteins are not necessarily representative of responses of endogenous proteins. Therefore, experiments were conducted to investigate the effect FTS on the endogenous TORC1 in nontransfected cells. […]

**Q.** What does the source list for `CC(C)=CCC/C(C)=C/CC/C(C)=C/CSc1ccccc1C(=O)O` [FTS, farnesylthiosalicylic acid]?
**A.** inhibition at 50 µM (MCF-7 cells; Homo sapiens, MCF7, 120 h, read-out: inhibition of E2-stimulated growth (cell number)): ~50%; basal growth (MCF-7 cells; culture media, five days): dose-dependently inhibited; [3H] thymidine incorporated into DNA (LTED cells): significantly reduced; amount of endogenous raptor that coimmunoprecipitated with mTOR (mTOR-raptor complex): markedly decreased
